# Like-named read-outs stand apart in the source and are kept apart here.
# Tests used:
# [1] = tested on: leaf discs of tobacco with (GUS+) introduced β-glucuronidase genes; format: cell-based, Nicotiana tabacum 'Wisconsin 38'; conditions: test compounds at several concentrations up to 250 μM in MSO
# [2] = Solubility; format: physicochemical
# [3] = tested on: leaf discs of tobacco without (GUS-) introduced β-glucuronidase genes; format: cell-based, Nicotiana tabacum 'Wisconsin 38'; conditions: test compounds at several concentrations up to 250 μM in MSO
# [4] = tested on: potato stem segments; assay: D-xylose as carbohydrate source during shoot regeneration; format: cell-based
# Procedure: Explants are produced and treated as described above under "selection of transformed tissue", except that the selection/regeneration substrate was not supplemented with kanamycin or cabenicillin, and that plant tissue is not transformed. Thus the only subcultivation step is when the explants are transferred from the co-cultivation substrate to the selection/regeneration substrate which is supplemented with xylose at the concentrations indicated below. The number of regenerated shoots is recorded after 12 weeks.
# [5] = tested on: potato stem segments with pAH-Xyl; assay: Selection on D-xylose, potato transformed with pAH-Xyl; format: cell-based
# Procedure: (§1) Shoots are regenerated from potato stem segments treated with various concentrations of sucrose and D-xylose. The number of shoots are counted after 11 weeks of selection. 105 explants are tested per treatment.
# [6] = tested on: sugarbeet cotyledon explants; assay: Effect of D-xylose in sugarbeets with and without light; format: cell-based
# Procedure: Sugarbeet is transformed by the so-called cot-pet method as described in PCT Patent Application No. PCT DK92/00108 wherein cotyledons including the petiole are used as explants. Seedlings are derived from seeds germinated and grown for 4-7 weeks at 12° C. in a 16 h day/8 h night regime. Cotyledons are excised 2-3 mm below the node, tawn apart and cultured either in the dark or in light and in the presence or absence of xylose.
# [7] = tested on: potato stem segments; assay: Carbohydrate sources, potato stem segments, 9 weeks; format: cell-based; conditions: for # of Shoots per explant / activity at 5000 µg/mL / activity at 10000 µg/mL: 9 weeks; for activity at 5000 µg/mL / activity at 10000 µg/mL: Solanum tuberosum
# Description: Similar results are observed with potato stem segments after 9 weeks of culturing.
# [8] = tested on: potato stem segments with control (Kanamycin resistant gene); assay: Selection on D-xylose, potato transformed with control (kanamycin resistant gene); format: cell-based
# Procedure: as §1
# [9] = tested on: explants; assay: Inhibition of the toxicity of mannose by methyl-3-O-glucose; format: cell-based; conditions: MOG 0 g/l; mannose 0 g/l; sucrose 10 g/l
# Description: Example 25 is repeated except that the selection/regeneration substrate is supplemented with methyl 3-0-glucose (MOG) at the concentrations indicated in Table 25. The percentage of live explants is registered after 8 weeks.
# [10] = tested on: non-transformed potato stem segments; assay: Inhibition by mannose of regeneration of shoots; format: cell-based, Solanum tuberosum; conditions: mannose 0 g/l
# Procedure: This substrate is referred to hereafter as "selection/regeneration substrate". Regenerated plants are produced as described above, except that the shoot segments are not co-cultured with bacteria and the washing procedure consequential thereon is omitted. […] In general, mannose cannot be used as a carbohydrate source in most plant species. When mannose is added to plants it is metabolized and mannose 6-phosphate accumulates. Mannose 6-phosphate can be converted to fructose 6-phosphate by mannose 6-phosphate isomerase, the amount converted being dependent upon the activity of the isomerase. Such fructose 6-phosphate may be utilized by plants, but in principal high levels of mannose (whether or not an alternative carbohydrate source is available) are toxic to plants.
# [11] = tested on: explants transgenic for the mannose 6-phosphate isomerase gene; assay: Shoot regeneration on mannose, sucrose and methyl-3-O-glucose, Man-6-P-isomerase; format: cell-based; conditions: sucrose 10 g/l, no mannose, no methyl 3O-glucose; Transgenic tissue
# [12] = tested on: Wild type explants; assay: Shoot regeneration on mannose, sucrose and methyl-3-O-glucose, wild type; format: cell-based; conditions: sucrose 10 g/l, no mannose, no methyl 3O-glucose; Wild type tissue
# [13] = sucrose 2.5 g/l, D-xylose 2.5 g/l
# [14] = sucrose 2.5 g/l, D-xylose 2.5 g/l, 11 weeks, 105 explants
# [15] = sucrose 2.5 g/l, D-xylose 5.0 g/l
# [16] = sucrose 2.5 g/l, D-xylose 7.5 g/l
# [17] = sucrose 5.0 g/l, D-xylose 2.5 g/l
# [18] = sucrose 5.0 g/l, D-xylose 5.0 g/l
# [19] = sucrose 5.0 g/l, D-xylose 7.5 g/l
# [20] = sucrose 10.0 g/l, D-xylose 2.5 g/l
# [21] = sucrose 10.0 g/l, D-xylose 5.0 g/l
# [22] = sucrose 10.0 g/l, D-xylose 7.5 g/l
# [23] = D-xylose 10 g/l, sucrose 0 g/l, 2 weeks in dark and 1 week in light
# [24] = D-xylose 10 g/l, sucrose 0 g/l, 3 weeks light
# [25] = D-xylose 10 g/l, sucrose 10 g/l, 2 weeks in dark and 1 week in light
# [26] = D-xylose 10 g/l, sucrose 10 g/l, 3 weeks light
# [27] = 10 g/l, read-out: Size % of control
# [28] = 10 g/l, read-out: explants alive % of control
# [29] = D-xylose 0 g/l, sucrose 10 g/l, 2 weeks in dark and 1 week in light
# [30] = D-xylose 0 g/l, sucrose 10 g/l, 3 weeks light
structure (smiles),measurement,setting,value
"NC(=O)[C@H]1O[C@@H](n2cnc(NCc3ccccc3)c3ncnc2-3)[C@H](O)[C@@H](O)[C@@H]1O [BA3GNamide, 3-β-D-glucupyranuronamido-6-benzylaminopurine]","Shoot formation, GUS+",[1],"+ (""+"" means shoot formation at concentrations below 250 μM)"
same,solubility,"[2]; organic solvent or mixture, 50% aqueous methanol containing 25% acetic acid",2400 µg/mL
same,solubility in words,[2]; water or alcohol,only sparingly soluble
same,"Shoot formation, GUS-",[3],"+ (""+"" means shoot formation at concentrations below 250 μM)"
O=C[C@H](O)[C@@H](O)[C@H](O)CO [D-xylose],"inhibition of shoot regeneration, in words","[4]; when sucrose is present, compared to D-mannose",weak inhibitor of shoot regeneration
same,Number of regenerated shoots each stem segment,"[4]; xylose 5 g/l, sucrose 0 g/l, 12 weeks",0
same,Number of regenerated shoots each stem segment,"[4]; xylose 5 g/l, sucrose 10 g/l",3
same,Number of regenerated shoots each stem segment,"[4]; xylose 10 g/l, sucrose 0 g/l",0
same,Number of regenerated shoots each stem segment,"[4]; xylose 10 g/l, sucrose 10 g/l",0
same,Number of regenerated shoots each stem segment,"[4]; xylose 20 g/l, sucrose 0 g/l",0
same,Number of regenerated shoots each stem segment,"[4]; xylose 20 g/l, sucrose 10 g/l",0
same,GUS+ Shoots,[5]; [13],0
same,GUS+ Shoots/explants,[5]; [13],0
same,No. Shoots,[5]; [14],0
same,GUS+ Shoots,[5]; [15],0
same,GUS+ Shoots/explants,[5]; [15],0
same,No. Shoots,[5]; [15],0
same,GUS+ Shoots,[5]; [16],0
same,GUS+ Shoots/explants,[5]; [16],0
same,No. Shoots,[5]; [16],0
same,GUS+ Shoots,[5]; [17],0
same,GUS+ Shoots/explants,[5]; [17],0
same,No. Shoots,[5]; [17],0
same,GUS+ Shoots,[5]; [18],0
same,GUS+ Shoots/explants,[5]; [18],0
same,No. Shoots,[5]; [18],0
same,GUS+ Shoots,[5]; [19],0
same,GUS+ Shoots/explants,[5]; [19],0
same,No. Shoots,[5]; [19],0
same,GUS+ Shoots,[5]; [20],5
same,GUS+ Shoots/explants,[5]; [20],0.05
same,GUS+ shoots/no. Shoots (%),[5]; [20],6%
same,No. Shoots,[5]; [20],84
same,GUS+ Shoots,[5]; [21],0
same,GUS+ Shoots/explants,[5]; [21],0
same,GUS+ shoots/no. Shoots (%),[5]; [21],0%
same,No. Shoots,[5]; [21],20
same,GUS+ Shoots,[5]; [22],4
same,GUS+ Shoots/explants,[5]; [22],0.04
same,GUS+ shoots/no. Shoots (%),[5]; [22],57.1%
same,No. Shoots,[5]; [22],7
same,% expl. with shoots,[6]; [23],13%
same,Green (%),[6]; [23],77%
same,weight (wet),[6]; [23],0.37 g
same,% expl. with shoots,[6]; [24],90%
same,Green (%),[6]; [24],90%
same,weight (wet),[6]; [24],1.53 g
same,% expl. with shoots,[6]; [25],80%
same,Green (%),[6]; [25],97%
same,weight (wet),[6]; [25],0.89 g
same,% expl. with shoots,[6]; [26],97%
same,Green (%),[6]; [26],100%
same,weight (wet),[6]; [26],5.47 g
same,# of Shoots per explant,[7]; 5 g/l,0
same,# of Shoots per explant,[7]; 10 g/l,0
same,activity at 5000 µg/mL,"[7]; 5 g/l, read-out: Size % of control",17%
same,activity at 5000 µg/mL,"[7]; 5 g/l, read-out: explants alive % of control",0%
same,activity at 10000 µg/mL,[7]; [27],13%
same,activity at 10000 µg/mL,[7]; [28],0%
same,"effect on shoot regeneration, in words",[7]; potato stem segments when sucrose is present,inhibitor of shoot regeneration
same,GUS+ Shoots,[8]; [13],0
same,GUS+ Shoots/explants,[8]; [13],0
same,No. Shoots,[8]; [14],0
same,GUS+ Shoots,[8]; [15],0
same,GUS+ Shoots/explants,[8]; [15],0
same,No. Shoots,[8]; [15],0
same,GUS+ Shoots,[8]; [16],0
same,GUS+ Shoots/explants,[8]; [16],0
same,No. Shoots,[8]; [16],0
same,GUS+ Shoots,[8]; [17],0
same,GUS+ Shoots/explants,[8]; [17],0
same,No. Shoots,[8]; [17],0
same,GUS+ Shoots,[8]; [18],0
same,GUS+ Shoots/explants,[8]; [18],0
same,No. Shoots,[8]; [18],0
same,GUS+ Shoots,[8]; [19],0
same,GUS+ Shoots/explants,[8]; [19],0
same,No. Shoots,[8]; [19],0
same,GUS+ Shoots,[8]; [20],0
same,GUS+ Shoots/explants,[8]; [20],0
same,GUS+ shoots/no. Shoots (%),[8]; [20],0%
same,No. Shoots,[8]; [20],32
same,GUS+ Shoots,[8]; [21],0
same,GUS+ shoots/no. Shoots (%),[8]; [21],0%
same,No. Shoots,[8]; [21],5
same,GUS+ Shoots,[8]; [22],0
same,GUS+ Shoots/explants,[8]; [22],0
same,GUS+ shoots/no. Shoots (%),[8]; [22],0%
same,No. Shoots,[8]; [22],2
OC[C@H]1O[C@@](CO)(O[C@H]2O[C@H](CO)[C@@H](O)[C@H](O)[C@H]2O)[C@@H](O)[C@@H]1O [sucrose],Number of regenerated shoots each stem segment,"[4]; xylose 0 g/l, sucrose 10 g/l",6
same,% expl. with shoots,[6]; [29],50%
same,Green (%),[6]; [29],97%
same,weight (wet),[6]; [29],1.38 g
same,% expl. with shoots,[6]; [30],98%
same,Green (%),[6]; [30],100%
same,weight (wet),[6]; [30],7.41 g
same,percentage of live explants,[9],100
same,Regenerated shoots/explant (%),[10]; sucrose 10 g/l,50%
same,Regenerated shoots/explant (%),[10]; sucrose 20 g/l,53%
same,# of Shoots per explant,[7]; 10 g/l,2.8
same,activity at 10000 µg/mL,[7]; [27],100%
same,activity at 10000 µg/mL,[7]; [28],100%
same,Regeneration of shoots,[11],1.4 shoots/explant
same,Regeneration of shoots,[12],1.7 shoots/explant
